From ChEMBL document CHEMBL3813616, “Discovery of novel 7-azaindoles as PDK1 inhibitors” (Bioorg Med Chem Lett, 2016)
pIC50: −log10 of the molar value. Values belong to the molecule of their own block, whether it stands above or below them.

Assays:
[1] = target: Mitogen-activated protein kinase kinase kinase 5 (Homo sapiens) (UniProt Q99683); assay: Inhibition of human ASK1 (670 to 950 residues) assessed as enzyme activity at 1 uM using 33P ATP by radioactive filter binding assay; parameters: scale not given: the % may be the effect or the level left
[2] = target: Serine/threonine-protein kinase PAK 2 (Homo sapiens) (UniProt Q13177); assay: Inhibition of human PAK2 (1 to 524 residues) assessed as enzyme activity at 1 uM using 33P ATP by radioactive filter binding assay; parameters: scale not given: the % may be the effect or the level left
[3] = target: Calcium/calmodulin-dependent protein kinase kinase 1 (Homo sapiens) (UniProt Q8N5S9); assay: Inhibition of CAMKK1 (unknown origin) assessed as enzyme activity at 1 uM using 33P ATP by radioactive filter binding assay; parameters: scale not given: the % may be the effect or the level left
[4] = target: Serine/threonine-protein kinase MARK1 (Homo sapiens) (UniProt Q9P0L2); assay: Inhibition of human MARK1 (2 to 795 residues) assessed as enzyme activity at 1 uM using 33P ATP by radioactive filter binding assay; parameters: scale not given: the % may be the effect or the level left
[5] = target: Aurora kinase A (Homo sapiens) (UniProt O14965); assay: Inhibition of human Aurora A (2 to 403 residues) assessed as enzyme activity at 1 uM using 33P ATP by radioactive filter binding assay; parameters: scale not given: the % may be the effect or the level left
[6] = target: Serine/threonine-protein kinase STK11 (Homo sapiens) (UniProt Q15831); assay: Inhibition of human LKB1 (1 to 433 residues) assessed as enzyme activity at 1 uM using 33P ATP by radioactive filter binding assay; parameters: scale not given: the % may be the effect or the level left
[7] = target: Receptor-interacting serine/threonine-protein kinase 2 (Homo sapiens) (UniProt O43353); assay: Inhibition of human RIPK2 (2 to 311 residues) assessed as enzyme activity at 1 uM using 33P ATP by radioactive filter binding assay; parameters: scale not given: the % may be the effect or the level left
[8] = target: Serine/threonine-protein kinase tousled-like 1 (Homo sapiens) (UniProt Q9UKI8); assay: Inhibition of human TLK1 (1 to 766 residues) assessed as enzyme activity at 1 uM using 33P ATP by radioactive filter binding assay; parameters: scale not given: the % may be the effect or the level left
[9] = target: Tyrosine-protein kinase ABL1 (Homo sapiens) (UniProt P00519); assay: Inhibition of human ABL (118 to 535 residues) assessed as enzyme activity at 1 uM using 33P ATP by radioactive filter binding assay; parameters: scale not given: the % may be the effect or the level left
[10] = target: Death-associated protein kinase 1 (Homo sapiens) (UniProt P53355); assay: Inhibition of human DAPK1 (1 to 363 residues) assessed as enzyme activity at 1 uM using 33P ATP by radioactive filter binding assay; parameters: scale not given: the % may be the effect or the level left
[11] = target: T1, 3-phosphoinositide-dependent protein kinase 1 (Homo sapiens, UniProt O15530); assay: Inhibition of human PDK1
T1 sequence (O15530 whole entry): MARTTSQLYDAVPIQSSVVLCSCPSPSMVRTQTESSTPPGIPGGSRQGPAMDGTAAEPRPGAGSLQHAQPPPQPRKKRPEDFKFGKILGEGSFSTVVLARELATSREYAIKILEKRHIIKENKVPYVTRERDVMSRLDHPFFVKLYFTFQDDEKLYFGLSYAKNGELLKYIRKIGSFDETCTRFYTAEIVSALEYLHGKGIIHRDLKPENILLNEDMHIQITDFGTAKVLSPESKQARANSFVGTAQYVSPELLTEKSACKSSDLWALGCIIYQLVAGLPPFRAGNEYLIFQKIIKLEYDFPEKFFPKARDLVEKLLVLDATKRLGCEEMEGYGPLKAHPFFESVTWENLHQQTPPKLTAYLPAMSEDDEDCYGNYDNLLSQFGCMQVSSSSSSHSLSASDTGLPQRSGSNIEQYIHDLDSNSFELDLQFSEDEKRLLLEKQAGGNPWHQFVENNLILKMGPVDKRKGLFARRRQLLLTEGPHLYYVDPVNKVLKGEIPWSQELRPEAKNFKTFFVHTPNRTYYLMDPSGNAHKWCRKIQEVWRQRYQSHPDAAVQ

[12] = target: Mitogen-activated protein kinase kinase kinase 11 (Homo sapiens) (UniProt Q16584); assay: Inhibition of human MLK3 (96 to 386 residues) assessed as enzyme activity at 1 uM using 33P ATP by radioactive filter binding assay; parameters: scale not given: the % may be the effect or the level left
[13] = target: MAP/microtubule affinity-regulating kinase 4 (Homo sapiens) (UniProt Q96L34); assay: Inhibition of human MARK4 (2 to 752 residues) assessed as enzyme activity at 1 uM using 33P ATP by radioactive filter binding assay; parameters: scale not given: the % may be the effect or the level left
[14] = target: Dual specificity protein kinase TTK (Homo sapiens) (UniProt P33981); assay: Inhibition of human TTK (1 to 857 residues) assessed as enzyme activity at 1 uM using 33P ATP by radioactive filter binding assay; parameters: scale not given: the % may be the effect or the level left
[15] = target: Serine/threonine-protein kinase BRSK1 (Homo sapiens) (UniProt Q8TDC3); assay: Inhibition of human BRSK1 (2 to 778 residues) assessed as enzyme activity at 1 uM using 33P ATP by radioactive filter binding assay; parameters: scale not given: the % may be the effect or the level left
[16] = target: Dual specificity mitogen-activated protein kinase kinase 6 (Homo sapiens) (UniProt P52564); assay: Inhibition of human MKK6 (2 to 334 residues) assessed as enzyme activity at 1 uM using 33P ATP by radioactive filter binding assay; parameters: scale not given: the % may be the effect or the level left
[17] = target: Eukaryotic translation initiation factor 2-alpha kinase 3 (Homo sapiens) (UniProt Q9NZJ5); assay: Inhibition of human EIF2AK3 (536 to 1116 residues) assessed as enzyme activity at 1 uM using 33P ATP by radioactive filter binding assay; parameters: scale not given: the % may be the effect or the level left
[18] = target: Ribosomal protein S6 kinase alpha-1 (Homo sapiens) (UniProt Q15418); assay: Inhibition of human RSK1 (1 to 735 residues) assessed as enzyme activity at 1 uM using 33P ATP by radioactive filter binding assay; parameters: scale not given: the % may be the effect or the level left
[19] = target: Serine/threonine-protein kinase 16 (Homo sapiens) (UniProt O75716); assay: Inhibition of human MPSK1 (1 to 305 residues) assessed as enzyme activity at 1 uM using 33P ATP by radioactive filter binding assay; parameters: scale not given: the % may be the effect or the level left
[20] = target: Dual specificity mitogen-activated protein kinase kinase 2 (Homo sapiens) (UniProt P36507); assay: Inhibition of human MKK2 (2 to 400 residues) assessed as enzyme activity at 1 uM using 33P ATP by radioactive filter binding assay; parameters: scale not given: the % may be the effect or the level left
[21] = target: Mitogen-activated protein kinase kinase kinase 7 (Homo sapiens) (UniProt O43318); assay: Inhibition of human TAB1 fused TAK1 (1 to 303 residues) assessed as enzyme activity at 1 uM using 33P ATP by radioactive filter binding assay; parameters: scale not given: the % may be the effect or the level left
[22] = target: Mitogen-activated protein kinase 9 (Homo sapiens) (UniProt P45984); assay: Inhibition of human JNK2 (1 to 424 residues) assessed as enzyme activity at 1 uM using 33P ATP by radioactive filter binding assay; parameters: scale not given: the % may be the effect or the level left
[23] = target: Dual specificity protein kinase CLK2 (Homo sapiens) (UniProt P49760); assay: Inhibition of human CLK2 (138 to 499 residues) assessed as enzyme activity at 1 uM using 33P ATP by radioactive filter binding assay; parameters: scale not given: the % may be the effect or the level left
[24] = target: Mitogen-activated protein kinase kinase kinase 9 (Homo sapiens) (UniProt P80192); assay: Inhibition of human MLK1 (132 to 413 residues) assessed as enzyme activity at 1 uM using 33P ATP by radioactive filter binding assay; parameters: scale not given: the % may be the effect or the level left
[25] = target: Phosphatidylinositol 4,5-bisphosphate 3-kinase catalytic subunit delta isoform (Homo sapiens) (UniProt O00329); assay: Inhibition of PI3K delta (unknown origin) at 10 uM

Sequence of Serine/threonine-protein kinase PAK 2 (Homo sapiens) (Q13177 whole entry, the tested form may be a part): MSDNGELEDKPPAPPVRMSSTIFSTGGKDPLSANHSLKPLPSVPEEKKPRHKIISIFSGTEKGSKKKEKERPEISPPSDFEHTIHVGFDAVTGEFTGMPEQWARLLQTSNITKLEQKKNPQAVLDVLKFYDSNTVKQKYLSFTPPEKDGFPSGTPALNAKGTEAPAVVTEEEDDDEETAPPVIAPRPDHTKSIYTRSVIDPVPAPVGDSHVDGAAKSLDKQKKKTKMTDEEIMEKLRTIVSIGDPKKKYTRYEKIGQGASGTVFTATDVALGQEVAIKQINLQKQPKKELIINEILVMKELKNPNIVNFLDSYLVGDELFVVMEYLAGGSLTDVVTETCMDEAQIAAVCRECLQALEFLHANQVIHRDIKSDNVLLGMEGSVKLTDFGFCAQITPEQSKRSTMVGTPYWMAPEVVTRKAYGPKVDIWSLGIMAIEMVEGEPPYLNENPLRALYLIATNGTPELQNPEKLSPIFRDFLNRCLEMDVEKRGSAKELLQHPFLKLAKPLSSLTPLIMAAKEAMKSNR
Sequence of MAP/microtubule affinity-regulating kinase 4 (Homo sapiens) (Q96L34 whole entry, the tested form may be a part): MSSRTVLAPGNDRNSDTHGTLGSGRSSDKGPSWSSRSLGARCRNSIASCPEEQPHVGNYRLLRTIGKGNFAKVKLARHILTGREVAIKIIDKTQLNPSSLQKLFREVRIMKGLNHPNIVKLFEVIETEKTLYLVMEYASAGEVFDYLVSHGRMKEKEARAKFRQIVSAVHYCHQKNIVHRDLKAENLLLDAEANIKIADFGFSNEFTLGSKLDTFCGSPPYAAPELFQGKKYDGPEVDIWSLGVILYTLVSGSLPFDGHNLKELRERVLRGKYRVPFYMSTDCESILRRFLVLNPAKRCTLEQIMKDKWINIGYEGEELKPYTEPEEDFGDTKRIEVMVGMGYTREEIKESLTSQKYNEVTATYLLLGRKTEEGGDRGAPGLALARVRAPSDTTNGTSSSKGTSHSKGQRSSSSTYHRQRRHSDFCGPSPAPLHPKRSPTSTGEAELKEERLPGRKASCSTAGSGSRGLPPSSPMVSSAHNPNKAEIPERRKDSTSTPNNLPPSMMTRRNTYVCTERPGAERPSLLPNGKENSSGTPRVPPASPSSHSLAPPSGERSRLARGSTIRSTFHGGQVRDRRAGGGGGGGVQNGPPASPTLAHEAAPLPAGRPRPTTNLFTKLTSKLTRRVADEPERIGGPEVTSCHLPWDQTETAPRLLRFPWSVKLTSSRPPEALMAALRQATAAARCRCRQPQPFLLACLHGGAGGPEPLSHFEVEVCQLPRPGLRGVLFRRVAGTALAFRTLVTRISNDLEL
Sequence of Serine/threonine-protein kinase BRSK1 (Homo sapiens) (Q8TDC3 whole entry, the tested form may be a part): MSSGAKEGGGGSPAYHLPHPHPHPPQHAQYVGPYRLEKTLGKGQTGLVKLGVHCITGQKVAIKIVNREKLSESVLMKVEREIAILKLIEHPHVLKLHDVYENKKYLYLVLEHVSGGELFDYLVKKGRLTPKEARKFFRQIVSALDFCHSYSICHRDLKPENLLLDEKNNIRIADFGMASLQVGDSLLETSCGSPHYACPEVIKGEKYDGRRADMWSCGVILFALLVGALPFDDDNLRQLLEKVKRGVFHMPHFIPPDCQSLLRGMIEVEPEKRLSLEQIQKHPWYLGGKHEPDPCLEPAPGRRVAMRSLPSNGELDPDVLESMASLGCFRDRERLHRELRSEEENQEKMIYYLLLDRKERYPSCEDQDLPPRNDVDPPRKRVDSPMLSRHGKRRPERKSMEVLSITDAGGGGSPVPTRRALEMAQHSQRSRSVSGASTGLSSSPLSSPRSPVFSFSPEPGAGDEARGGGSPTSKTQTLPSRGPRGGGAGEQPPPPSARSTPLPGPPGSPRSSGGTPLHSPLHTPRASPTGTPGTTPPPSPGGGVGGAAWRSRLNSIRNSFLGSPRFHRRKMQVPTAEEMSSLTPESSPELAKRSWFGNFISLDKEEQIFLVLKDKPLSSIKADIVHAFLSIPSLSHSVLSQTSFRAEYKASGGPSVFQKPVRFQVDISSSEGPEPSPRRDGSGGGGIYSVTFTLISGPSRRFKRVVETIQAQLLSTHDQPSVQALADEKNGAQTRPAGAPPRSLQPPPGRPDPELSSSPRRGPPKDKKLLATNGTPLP
Sequence of Serine/threonine-protein kinase 16 (Homo sapiens) (O75716 whole entry, the tested form may be a part): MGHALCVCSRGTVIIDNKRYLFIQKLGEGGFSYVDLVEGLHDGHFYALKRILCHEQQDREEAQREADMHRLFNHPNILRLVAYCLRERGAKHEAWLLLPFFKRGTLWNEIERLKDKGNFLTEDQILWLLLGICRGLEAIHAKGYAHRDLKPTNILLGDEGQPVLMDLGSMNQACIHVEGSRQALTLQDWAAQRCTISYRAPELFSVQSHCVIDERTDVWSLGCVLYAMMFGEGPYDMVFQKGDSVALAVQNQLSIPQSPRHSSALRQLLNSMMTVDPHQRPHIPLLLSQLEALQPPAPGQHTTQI
Sequence of Mitogen-activated protein kinase kinase kinase 5 (Homo sapiens) (Q99683 whole entry, the tested form may be a part): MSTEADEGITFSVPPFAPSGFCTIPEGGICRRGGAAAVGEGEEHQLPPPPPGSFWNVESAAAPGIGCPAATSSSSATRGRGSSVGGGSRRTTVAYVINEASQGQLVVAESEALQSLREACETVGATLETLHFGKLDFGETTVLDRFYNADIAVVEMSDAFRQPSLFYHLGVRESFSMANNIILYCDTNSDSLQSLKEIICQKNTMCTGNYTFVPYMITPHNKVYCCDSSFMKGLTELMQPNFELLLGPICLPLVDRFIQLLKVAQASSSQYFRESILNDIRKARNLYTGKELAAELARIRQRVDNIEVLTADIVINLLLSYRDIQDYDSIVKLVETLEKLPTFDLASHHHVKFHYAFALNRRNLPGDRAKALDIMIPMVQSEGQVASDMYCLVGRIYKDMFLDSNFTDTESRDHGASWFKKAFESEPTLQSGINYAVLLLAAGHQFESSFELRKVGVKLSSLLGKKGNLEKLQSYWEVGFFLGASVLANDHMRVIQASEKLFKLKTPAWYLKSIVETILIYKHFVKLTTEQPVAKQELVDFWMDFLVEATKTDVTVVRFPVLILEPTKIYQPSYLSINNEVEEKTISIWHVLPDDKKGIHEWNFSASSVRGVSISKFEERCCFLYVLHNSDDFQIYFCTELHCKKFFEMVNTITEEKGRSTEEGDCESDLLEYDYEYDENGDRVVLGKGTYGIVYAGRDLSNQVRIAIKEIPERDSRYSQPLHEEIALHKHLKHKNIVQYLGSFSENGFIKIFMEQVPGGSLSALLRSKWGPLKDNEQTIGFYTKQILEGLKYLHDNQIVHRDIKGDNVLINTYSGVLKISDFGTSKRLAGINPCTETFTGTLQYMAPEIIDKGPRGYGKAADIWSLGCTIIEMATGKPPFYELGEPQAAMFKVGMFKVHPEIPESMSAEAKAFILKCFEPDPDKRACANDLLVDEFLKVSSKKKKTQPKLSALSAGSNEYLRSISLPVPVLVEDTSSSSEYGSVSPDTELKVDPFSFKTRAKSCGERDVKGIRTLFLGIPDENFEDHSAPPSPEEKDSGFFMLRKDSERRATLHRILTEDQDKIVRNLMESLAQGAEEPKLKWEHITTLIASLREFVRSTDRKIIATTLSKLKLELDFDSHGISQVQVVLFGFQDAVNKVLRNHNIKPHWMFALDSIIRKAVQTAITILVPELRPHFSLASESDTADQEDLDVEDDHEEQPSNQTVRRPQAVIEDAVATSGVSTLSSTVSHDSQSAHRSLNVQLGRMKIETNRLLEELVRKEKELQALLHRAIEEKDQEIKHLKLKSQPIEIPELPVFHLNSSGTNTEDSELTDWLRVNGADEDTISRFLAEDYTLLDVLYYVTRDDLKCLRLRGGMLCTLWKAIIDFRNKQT
Sequence of Serine/threonine-protein kinase MARK1 (Homo sapiens) (Q9P0L2 whole entry, looked up, the tested form may be a part): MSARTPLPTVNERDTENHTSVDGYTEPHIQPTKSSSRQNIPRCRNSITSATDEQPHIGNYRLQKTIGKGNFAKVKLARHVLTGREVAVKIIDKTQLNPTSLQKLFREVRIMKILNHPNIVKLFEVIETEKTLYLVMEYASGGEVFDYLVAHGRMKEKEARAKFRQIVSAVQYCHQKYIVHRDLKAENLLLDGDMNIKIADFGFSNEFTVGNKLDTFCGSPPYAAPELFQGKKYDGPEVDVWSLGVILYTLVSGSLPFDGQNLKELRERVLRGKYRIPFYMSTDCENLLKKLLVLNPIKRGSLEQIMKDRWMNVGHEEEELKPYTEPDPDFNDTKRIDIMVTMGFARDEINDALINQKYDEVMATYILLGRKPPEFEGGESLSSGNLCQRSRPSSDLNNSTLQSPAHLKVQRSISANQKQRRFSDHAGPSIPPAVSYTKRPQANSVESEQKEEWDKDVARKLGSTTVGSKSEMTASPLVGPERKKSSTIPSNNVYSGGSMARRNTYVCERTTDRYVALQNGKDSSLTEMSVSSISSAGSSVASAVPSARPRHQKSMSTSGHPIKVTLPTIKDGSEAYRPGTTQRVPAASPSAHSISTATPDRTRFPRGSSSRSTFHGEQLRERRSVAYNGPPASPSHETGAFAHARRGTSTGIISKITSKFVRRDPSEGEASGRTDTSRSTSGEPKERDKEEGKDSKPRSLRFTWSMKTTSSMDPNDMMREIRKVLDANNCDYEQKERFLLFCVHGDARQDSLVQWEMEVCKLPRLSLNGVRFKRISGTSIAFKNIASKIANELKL
Sequence of Receptor-interacting serine/threonine-protein kinase 2 (Homo sapiens) (O43353 whole entry, the tested form may be a part): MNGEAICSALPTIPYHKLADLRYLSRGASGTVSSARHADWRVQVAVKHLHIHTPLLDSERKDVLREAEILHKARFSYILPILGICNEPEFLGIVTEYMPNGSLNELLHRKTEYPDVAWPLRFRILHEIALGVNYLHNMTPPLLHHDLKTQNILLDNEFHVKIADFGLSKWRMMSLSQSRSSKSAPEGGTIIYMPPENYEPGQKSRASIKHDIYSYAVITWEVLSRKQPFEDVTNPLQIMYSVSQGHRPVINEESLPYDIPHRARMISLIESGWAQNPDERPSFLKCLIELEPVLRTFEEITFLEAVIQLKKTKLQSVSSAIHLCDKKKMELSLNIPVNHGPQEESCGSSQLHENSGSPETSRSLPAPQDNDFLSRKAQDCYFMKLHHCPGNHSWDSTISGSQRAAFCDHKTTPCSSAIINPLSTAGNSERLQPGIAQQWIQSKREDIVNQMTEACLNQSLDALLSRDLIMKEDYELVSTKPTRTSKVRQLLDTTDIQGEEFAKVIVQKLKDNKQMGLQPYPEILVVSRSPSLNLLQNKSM

Activity [1]: -4%
Activity [2]: 1%
Activity [3]: -33%
Activity [4]: -26%
Activity [5]: 1%
Activity [6]: -18%
Activity [7]: -13%
Activity [8]: -14%
Activity [9]: 1%
pIC50 [11]: 5.23
Activity [12]: -35%
Activity [13]: 35%
Activity [14]: -57%
Activity [15]: -4%
Activity [16]: -13%
Activity [17]: -9%
Activity [18]: -69%
Activity [19]: -4%
Activity [20]: -34%
Activity [21]: -82%
Activity [22]: -1%
Activity [23]: -98%
Activity [24]: -20%
Structure (SMILES): Nc1nccc(-c2c[nH]c3ncccc23)n1 [MERIOLIN 1]
Activity [10]: -28%

inhibition [25]: 77%
Structure (SMILES): CCc1cc(-c2c[nH]c3ncc(-c4cnn(C5CCNCC5)c4)cc23)nc(N)n1
